Assay results: patent US20170327536A1, “NEUROTOXIC TARGET FOR AMYLOSPHEROID, METHOD AND MATERIAL FOR REDUCING THE NEUROTOXICITY OF AMYLOSPHEROID, AND USE THEREOF” (TAO Health Life Pharma Co., Ltd., priority 2011, published 2017)

Experiments:
[1] = target: ASPD (Homo sapiens, UniProt P05067); experiment: Surface plasmon resonance (SPR), biotinylated AAT peptide on chip, ASPD as ligand; format: binding; details: peptide solid phase on chip
Text: Biotin was bound to each C-terminal side of the above-mentioned AAT peptides 01 to […] and made into a solid phase on a chip, and a dissociation constant was obtained by surface plasmon resonance (SPR) using ASPD as a ligand.

[2] = system: mature rat hippocampus-derived primary cultured neurons; experiment: Inhibition effect of AAT peptides on ASPD apoptotic activity (neutralization); format: cell-based; details: 4 μM synthetic ASPD, 24 hours; for inhibition effect on ASPD apoptotic activity compared with AAT01: 0.14 μM peptide, FIG. 19
Description: Based on the fact that anti-ASPD antibodies bind to ASPD to inhibit interaction between ASPD and NAKα3 that is a target molecule to suppress death of neurons, a peptide having similar effect was searched. For this purpose, ASPD immobilized to a microtiter plate was screened through use of (commercially available) phage display library in which a library of random 12 amino acids was expressed on a virus surface, and a converged sequence was analyzed. […] A peptide having neutralization activity was named as an Anti-AD toxicity (AAT) peptide.
The apoptotic activity was measured 24 hours later and compared with that of a control to which the AAT peptide has not been administered, whereby the inhibition activity was calculated.

[3] = target: T1, 105 kDa band (Na+/K+-ATPase α3) (Rattus norvegicus, UniProt P06687); experiment: Far-western blotting of cell extracts; format: binding; details: extracts of neurons and HEK293 cells; detection with haASD1 (ASPD) or 6E10 (Aβ monomer)
T1 construct: endogenous in cells; host or cells: rat hippocampus-derived primary cultured neurons (mature)
Description: Extracts were prepared with RadioImmunoPrecipitation Assay (RIPA) respectively from the rat hippocampus-derived primary cultured neurons (number of culture days shown in FIG. 4) and the HEK293 cells, and protein amounts of the extracts were determined. Then, predetermined amounts of the extracts were subjected to electrophoresis with SDS-PAGE and transcribed to a nitrocellulose membrane, and reacted with native ASPD or an Aβ monomer for a predetermined period of time. The binding of the native ASPD was detected with anti-ASPD antibodies haASD1, and the binding of the Aβ monomer was detected with 6E10 that was commercially available anti-Aβ monomer antibodies (far-western blotting).
Thus, the synthetic ASPD is considered to be equivalent to the native ASPD, and after that, analysis was carried out using the synthetic ASPD.

Sequence of ASPD (P05067 672-713 limits assumed): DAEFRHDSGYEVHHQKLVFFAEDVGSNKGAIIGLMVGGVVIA

With `CC(C)C[C@H](NC(=O)[C@@H](N)Cc1c[nH]cn1)C(=O)N[C@@H](CC(N)=O)C(=O)N[C@@H](Cc1c[nH]c2ccccc12)C(=O)N[C@@H](Cc1c[nH]c2ccccc12)C(=O)N[C@@H](Cc1c[nH]cn1)C(=O)N[C@@H](CO)C(=O)N[C@@H](Cc1c[nH]c2ccccc12)C(=O)N[C@@H](Cc1ccc(O)cc1)C(=O)N1CCC[C@H]1C(=O)N[C@@H](C)C(=O)N[C@@H](CCCNC(=N)N)C(=O)N[C@@H](CCCCNC(=O)CCCC[C@@H]1SC[C@@H]2NC(=O)N[C@@H]21)C(N)=O` [C-terminal biotinylated AAT02] the ka [1] was 5.60 × 10^3 and the kd [1] was 4.62 × 10^-4.
In the case of `CC(C)C[C@H](NC(=O)[C@H](CC(N)=O)NC(=O)[C@H](Cc1ccc(O)cc1)NC(=O)[C@H](Cc1c[nH]c2ccccc12)NC(=O)[C@H](CC(N)=O)NC(=O)[C@H](Cc1ccccc1)NC(=O)[C@@H](N)Cc1c[nH]cn1)C(=O)N[C@@H](Cc1c[nH]c2ccccc12)C(=O)N[C@@H](CCCNC(=N)N)C(=O)N[C@H](C(=O)N[C@@H](CCC(N)=O)C(=O)N[C@@H](Cc1ccc(O)cc1)C(=O)N[C@@H](CCCCNC(=O)CCCC[C@@H]1SC[C@@H]2NC(=O)N[C@@H]21)C(N)=O)C(C)C` [C-terminal biotinylated AAT01], the ka [1] is reported as 7.64 × 10^3 and the kd [1] is reported as 4.41 × 10^-4.
For “HFNWDW (ASPD-interacting motif/peptide) [AAT05]”, the “inhibition effect on ASPD apoptotic activity compared with AAT01” value [2] was “equal to or more than that of the AAT01”.
For “Aβ monomer: peptide cleaved from amyloid precursor protein (APP) with β- and γ-secretase”, the “binding to 105 kDa band in far-western blotting” value [3] was “did not bind to the band”.
For “HFNWD (ASPD-interacting motif/peptide) [AAT04]”, the “inhibition effect on ASPD apoptotic activity compared with AAT01” value [2] was “equal to or more than that of the AAT01”.
In the case of `CC(C)C[C@H](NC(=O)[C@H](Cc1c[nH]c2ccccc12)NC(=O)[C@H](CC(N)=O)NC(=O)[C@H](CC(C)C)NC(=O)[C@@H](N)Cc1c[nH]cn1)C(=O)N[C@@H](CO)C(=O)N[C@@H](Cc1c[nH]c2ccccc12)C(=O)N[C@@H](Cc1ccccc1)C(=O)N1CCC[C@H]1C(=O)N[C@@H](CO)C(=O)N[C@@H](CCCNC(=N)N)C(=O)N[C@@H](Cc1c[nH]cn1)C(=O)N[C@@H](CCCCNC(=O)CCCC[C@@H]1SC[C@@H]2NC(=O)N[C@@H]21)C(N)=O` [C-terminal biotinylated AAT03], the ka [1] is reported as 4.96 × 10^3 and the kd [1] is reported as 4.39 × 10^-4.
For “HFNW (ASPD-interacting motif/peptide) [AAT06]”, the “inhibition effect on ASPD apoptotic activity compared with AAT04” value ([2]; 2.8 μM peptide, FIG. 20) was “equal to or higher than that of the AAT04”.
